Data published in ChEMBL document CHEMBL1201862, “PubChem BioAssay data set” (2004).
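Interpolation was linear, between the two tested concentrations surrounding the appropriate level; five concentrations were tested over 48 hours in 96-well plates. At the GI50, growth is halved.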 The source made the active and inactive calls. No stated cut-off is given here; in the data, active = GI50 up to about 1.1 µM and inactive = higher.

Columns and labels:
Test in all cases: NCI anticancer screen, dose series, 48 h
786-0 = test system: 786-0
A549 = test system: A549
COLO 205 = test system: COLO 205
HCT-116 = test system: HCT-116
Hs-578T = test system: Hs-578T
IGROV-1 = test system: IGROV-1
KM12 = test system: KM12
MDA-MB-231 = test system: MDA-MB-231
MDA-MB-435 = test system: MDA-MB-435
NCI/ADR-RES = test system: NCI/ADR-RES
OVCAR-4 = test system: OVCAR-4
OVCAR-5 = test system: OVCAR-5
PC-3 = test system: PC-3
RPMI-8226 = test system: RPMI-8226
RXF 393 = test system: RXF 393
SK-MEL-28 = test system: SK-MEL-28
SK-MEL-5 = test system: SK-MEL-5
SNB-75 = test system: SNB-75
UACC-62 = test system: UACC-62
TK-10 = test system: TK-10

Measured: GI50

COc1ccc2cc(NC(=O)N/N=C\c3ccc([N+](=O)[O-])cc3)ccc2c1
inactive: 786-0 30.5 µM | A549 34.1 µM | COLO 205 > 100 µM | HCT-116 53.3 µM | Hs-578T 42.5 µM | IGROV-1 23.7 µM | KM12 72.3 µM | MDA-MB-231 37.4 µM | MDA-MB-435 69 µM | NCI/ADR-RES 23.8 µM | OVCAR-4 1.91 µM | OVCAR-5 45.9 µM | PC-3 27.6 µM | RPMI-8226 35.7 µM | RXF 393 20.4 µM | SK-MEL-28 > 100 µM | SK-MEL-5 73.3 µM | SNB-75 21.3 µM | UACC-62 20.9 µM

CN1CN(c2ccccc2)C2(CCN(C3Nc4ccccc4O3)CC2)C1=O (stereo not given)
inactive: 786-0 20.6 µM | A549 27.3 µM | COLO 205 16.3 µM | HCT-116 16.2 µM | Hs-578T 12.9 µM | IGROV-1 22.9 µM | KM12 19.6 µM | MDA-MB-231 20.1 µM | MDA-MB-435 19 µM | NCI/ADR-RES 20.8 µM | OVCAR-5 17.6 µM | PC-3 16.7 µM | RPMI-8226 11.7 µM | RXF 393 14.5 µM | SK-MEL-28 23.5 µM | SK-MEL-5 17.7 µM | SNB-75 20.9 µM | TK-10 11.1 µM | UACC-62 16.1 µM

CCC(CCC(C)C1CCC2C3CC=C4CC(OC5OC(CO)C(O)C(O)C5O)CCC4(C)C3CCC12C)C(C)C (stereo not given)
inactive: 786-0 > 100 µM | A549 > 100 µM | COLO 205 > 100 µM | HCT-116 > 100 µM | Hs-578T > 100 µM | IGROV-1 > 100 µM | KM12 > 100 µM | MDA-MB-231 > 100 µM | MDA-MB-435 > 100 µM | NCI/ADR-RES > 100 µM | OVCAR-4 > 100 µM | OVCAR-5 > 100 µM | PC-3 > 100 µM | RPMI-8226 > 100 µM | RXF 393 > 100 µM | SK-MEL-28 > 100 µM | SK-MEL-5 > 100 µM | TK-10 > 100 µM | UACC-62 > 100 µM

Nc1nc(-c2cccnc2)cc(-c2cc(-c3cccnc3)nc(N)n2)n1
inactive: 786-0 > 100 µM | A549 > 100 µM | COLO 205 > 100 µM | HCT-116 > 100 µM | Hs-578T > 100 µM | IGROV-1 > 100 µM | KM12 > 100 µM | MDA-MB-231 > 100 µM | MDA-MB-435 50.1 µM | NCI/ADR-RES > 100 µM | OVCAR-4 > 100 µM | OVCAR-5 > 100 µM | PC-3 > 100 µM | RPMI-8226 > 100 µM | RXF 393 > 100 µM | SK-MEL-28 > 100 µM | SK-MEL-5 > 100 µM | TK-10 > 100 µM | UACC-62 > 100 µM

O=C1OCC2OC(=O)c3cc(O)c(O)c(O)c3-c3c(O)c(O)c(O)c4c3C(=O)OC(C2OC(=O)c2cc(O)c(O)c(O)c2-c2c1cc(O)c(O)c2O)C1OC(=O)C2C4=C(O)C(=O)C23Oc2cc(O)c4c(c2[C@H]13)O[C@H](c1ccc(O)c(O)c1)[C@@H](O)C4 (stereo not given in full)
inactive: 786-0 21.4 µM | A549 19.1 µM | COLO 205 19.2 µM | HCT-116 17.3 µM | Hs-578T 28.1 µM | IGROV-1 26.4 µM | KM12 24.8 µM | MDA-MB-231 18.9 µM | MDA-MB-435 18.5 µM | NCI/ADR-RES 23.3 µM | OVCAR-4 15.7 µM | OVCAR-5 14.6 µM | PC-3 38.5 µM | RPMI-8226 24.5 µM | RXF 393 16.8 µM | SK-MEL-28 66.7 µM | SK-MEL-5 16 µM | SNB-75 28.4 µM | UACC-62 20.4 µM

CCOC(=O)c1nc(SC)sc1NC(=O)c1ccc(OC)cc1
inactive: 786-0 20.5 µM | A549 29.7 µM | COLO 205 28.8 µM | HCT-116 19.5 µM | Hs-578T > 100 µM | IGROV-1 > 100 µM | KM12 > 100 µM | MDA-MB-231 35.2 µM | MDA-MB-435 > 100 µM | NCI/ADR-RES > 100 µM | OVCAR-4 29.2 µM | OVCAR-5 > 100 µM | PC-3 > 100 µM | RPMI-8226 > 100 µM | RXF 393 33.4 µM | SK-MEL-28 75 µM | SK-MEL-5 > 100 µM | TK-10 21.1 µM | UACC-62 > 100 µM

COC(=O)C(I(OS(=O)(=O)c1ccc(C)cc1)c1ccccc1)=P(c1ccccc1)(c1ccccc1)c1ccccc1
inactive: 786-0 12.4 µM | A549 24.5 µM | COLO 205 3.13 µM | HCT-116 16.3 µM | Hs-578T 24.7 µM | IGROV-1 17.1 µM | KM12 19.5 µM | MDA-MB-231 30.1 µM | MDA-MB-435 18 µM | NCI/ADR-RES 64 µM | OVCAR-4 13.7 µM | OVCAR-5 28.6 µM | PC-3 18.9 µM | RPMI-8226 5.04 µM | RXF 393 20.5 µM | SK-MEL-28 15.1 µM | SK-MEL-5 12.2 µM | TK-10 23.6 µM | UACC-62 18.7 µM

COc1ccc(C2=NN(C(=O)c3ccccc3)C(O)(c3cc(F)c(Cl)cc3Cl)C2)cc1OC (stereo not given)
inactive: 786-0 30.3 µM | A549 93.8 µM | COLO 205 > 100 µM | HCT-116 50 µM | Hs-578T 34.5 µM | IGROV-1 40.1 µM | KM12 > 100 µM | MDA-MB-231 42.2 µM | MDA-MB-435 31.8 µM | NCI/ADR-RES 62.1 µM | OVCAR-4 18.5 µM | OVCAR-5 71.3 µM | PC-3 31.3 µM | RPMI-8226 38 µM | RXF 393 18.9 µM | SK-MEL-28 49.8 µM | SK-MEL-5 > 100 µM | TK-10 35.9 µM | UACC-62 45.6 µM

O=[N+]([O-])c1ccc2sc(/C=N/c3ccc(O)cc3)cc2c1
inactive: 786-0 19 µM | A549 48 µM | COLO 205 38 µM | HCT-116 27.9 µM | Hs-578T 18.9 µM | IGROV-1 31.4 µM | KM12 33.7 µM | MDA-MB-231 17.8 µM | MDA-MB-435 18.2 µM | NCI/ADR-RES 28.8 µM | OVCAR-5 62.2 µM | PC-3 29.6 µM | RPMI-8226 22.3 µM | RXF 393 21.5 µM | SK-MEL-28 36.1 µM | SK-MEL-5 21.8 µM | SNB-75 25.8 µM | TK-10 63.7 µM | UACC-62 23.1 µM

CC(=O)c1c(O)nnc(-c2ccc(Cl)cc2)c1-c1ccc(Cl)cc1
inactive: 786-0 83.6 µM | A549 29.9 µM | COLO 205 29.2 µM | HCT-116 58.2 µM | Hs-578T 53.1 µM | IGROV-1 26.2 µM | KM12 35.2 µM | MDA-MB-231 21.2 µM | MDA-MB-435 29.9 µM | NCI/ADR-RES 30.1 µM | OVCAR-4 21.1 µM | OVCAR-5 > 100 µM | PC-3 37.4 µM | RPMI-8226 23.2 µM | RXF 393 38.9 µM | SK-MEL-28 41.9 µM | SK-MEL-5 29 µM | TK-10 62.4 µM | UACC-62 12.4 µM
